Read-outs that look alike come from different tables or passages of the source.
Tests used:
[1] = Pharmacokinetics of Compound C128 liposome in rats; type: in vivo; conditions: C128 liposomes, 10 mg/kg tail vein injection, plasma, non-compartmental; for Vd: male, SD, 10 mg/kg
Procedure: C128 liposomes: (The liposome was prepared according to the conventional method in the pharmaceutical field, particle size 62.6 nm, polydispersity 0.532).
SD male rats, with average weight of 200 g.
Chromatographic conditions: LC-20A high performance liquid chromatography, SPD-20A variable wavelength UV detector (Shimadzu Corporation, Japan); C18 pre-column; mobile phase: methanol/water (65/35, v/v); flow rate 1 mL/min; detection wavelength 283 nm; column temperature 40° C.
The blood was collected from the orbital sinus of rats and centrifuged for 10 minutes at 3000 r/min, and the plasma was separated. 200 μL of the plasma was accurately sampled, and placed in 1.5 mL EP tube. 600 μL acetonitrile was added. The tube was vortexed for 3 minutes, and centrifuged for 10 minutes at 16000 r/min. 20 μL supernatant was taken for injection of HPLC determination. Chromatograms and peak area were recorded.
Blank plasma (280 μL) was accurately pipetted, and 20 μL of standard solutions of different concentrations of the drug was added to obtain the biological samples of different concentrations of the drug. The samples were treated and measured according to the aforementioned “Processing of the biological samples”. The chromatogram and the peak area were recorded. Linear regression was made by peak area A v.s concentration C (μg/mL) to obtain the standard working curve of Compound C128 in the biological samples.
Three male rats were used, and administered via tail vein injection at a dose of 10 mg/kg. The blood was taken via the orbital sinus after administration of 5 min, 15 min, 30 min, 1 h, 2 h, 4 h, 6 h, 8 h, 10 h, respectively. The samples were treated and measured according to the aforementioned “Processing of the biological samples”. The chromatogram and the peak area were recorded. The measured amount, namely, the drug concentration in plasma, was calculated by putting the peak area of the drug into the standard working curve equation.
The time curve of the drug in plasma was drawn—the area under the plasma drug concentration-time curve (AUC) was calculated by the Log trapezoidal method.

MCF-7 = test: MTT assay of anti-tumor activity, MCF-7; type: cell-based; conditions: Homo sapiens, MCF7, 72 h, MCF-7 cells
Procedure: (§1) The cells were digested and counted. The cell suspension was prepared in a concentration of 5×10^4 cells/ml. 100 μL of the cell suspension per well was added into 96-well plates (5×10^3 cells per well). The 96-well plates were placed in a 5% CO2 incubator at 37° C. for 24 hours. The drugs were diluted with the complete medium to the desired concentrations. 100 μL of the corresponding drug-containing medium was added into each well. Negative control group, vehicle control group and positive control group were set. The 96-well plates were placed in 5% CO2 incubator at 37° C. for 72 hours. The 96-well plates were subjected to a MTT assay, and measured OD value at λ=490 nm. The measurement procedure comprises adding 20 μL MTT (5 mg/ml) for each well, incubating for 4 hours in an incubator, discarding the medium, dissolving by adding 150 μL DMSO into each well, mixing uniformly by rocking gently for 10 minutes on a shaker, reading OD value of each well in a microplate reader at λ=490 nm. The inhibition rate was calculated, the results were recorded, and the anti-tumor activity was assessed.

tubulin = test: Inhibitory activity on tubulin polymerization (kit BK011P, Cytoskeleton); type: biochemical; conditions: 37° C., 60 minutes, fluorescence, Vmax
Procedure: The compounds were formulated into six different concentrations (0.03, 0.3, 0.9, 3, 9, 30 μM). The tubulin polymerization assay kit (Cat. # BK011P, Cytoskeleton) was used for testing. The samples were incubated at 37° C. for 60 minutes, and then fluorescence was collected using Gemini EM Fluorescence Microplate Reader collected at 410-460 nm. Vmax was calculated using SOFTMAX® PRO microplate data acquisition & analysis software. The tubulin inhibition (IC50) of the compound was calculated using GRAPHPAD PRISM® v5.01 graphing and statistics software.

K562 = test: MTT assay of anti-tumor activity, K562; type: cell-based; conditions: Homo sapiens, K562, 72 h, K562 cells
Procedure: as §1

NCI-H460 = test: MTT assay of anti-tumor activity, NCI-H460; type: cell-based; conditions: Homo sapiens, NCI-H460, 72 h, NCI-H460 cells
Procedure: as §1

HCT-116 = test: MTT assay of anti-tumor activity, HCT-116; type: cell-based; conditions: Homo sapiens, HCT-116, 72 h, HCT-116 cells
Procedure: as §1

- AUMC0-inf—obs ([1]; SD male rats): 7.569 μg/ml*h^2
- Lambda—z ([1]; SD male rats): 0.833 h⁻¹
- Vd ([1]; rat, iv, read-out: Vss—obs): 1.29 L/kg
- Vd ([1]; rat, iv, read-out: Vz—obs): 1.57 L/kg
- AUC(0-t) ([1]; rat, iv, SD male rats): 7280 ng·h/mL
- C0 ([1]; rat, iv, SD male rats): 20400 ng/mL
- Cmax ([1]; rat, iv, SD male rats): 14200 ng/mL
- Tmax ([1]; rat, iv, SD male rats): 4.98 min
- half-life ([1]; rat, iv, SD male rats): 50 min
- AUC(0-inf) ([1]; rat, iv, SD male rats, read-out: AUC0-inf—obs): 7770 ng·h/mL
- clearance ([1]; rat, iv, SD male rats, read-out: Cl—obs (converted)): 21.7 mL/min/kg
- MRT inf ([1]; rat, iv, SD male rats, read-out: MRT0-inf—obs): 58.9 min
- IC50 (MCF-7): 1 nM
- IC50 (tubulin): 590 nM
- IC50 (K562): 1.9 nM
- IC50 (NCI-H460): 92 nM
- IC50 (HCT-116): 110 nM
- melting point: 127.1 to 128.9 °C
SMILES: COc1cc(OC)cc(-c2nc[nH]c2-c2ccc(OC)c(F)c2)c1 [Compound C128, 4-(3,5-dimethoxyphenyl)-5-(3-fluoro-4-methoxyphenyl)imidazole]

Source: patent US9139574B2, “Tumor targeted drug combretastatin A4 derivative” (Nanjing Sanhome Pharmaceutical Co., Ltd., priority 2011, dated 2015)
